Data from PubChem BioAssay AID248 (DTP/NCI, 2004).
Toxic doses and inconclusive results are not listed. No stated cut-off is given here; in the data, active means T/C of 150% or more; inactive means T/C below 125%.

Tested on: L1210 leukemia ip in BDF1 mice, survival T/C
Assay: NCI In Vivo Anticancer Drug Screen. Data for tumor model L1210 Leukemia (intraperitoneal) in B6D2F1 (BDF1) mice
Settings: endpoint: mean survival time, higher = longer survival
Method in brief: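 Tumor was transplanted into mice, which were then dosed with test compound or vehicle alone. Survival was recorded for each group, and the treated figure was expressed relative to the control figure.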

[1] = dose: 50.0 mg/kg/injection, schedule: Q01DX009 (ip), vehicle: Klucel (hydroxypropylcellulose) (HPC)
[2] = dose: 100.0 mg/kg/injection, schedule: Q01DX009 (ip), vehicle: Klucel (hydroxypropylcellulose) (HPC)
[3] = dose: 200.0 mg/kg/injection, schedule: Q01DX009 (ip), vehicle: Klucel (hydroxypropylcellulose) (HPC)
[4] = dose: 100.0 mg/kg/injection, schedule: Q01DX001 (ip), vehicle: saline
[5] = dose: 200.0 mg/kg/injection, schedule: Q01DX001 (ip), vehicle: saline
[6] = dose: 400.0 mg/kg/injection, schedule: Q01DX001 (ip), vehicle: saline
[7] = dose: 100.0 mg/kg/injection, schedule: Q04DX002 (ip), vehicle: Klucel (hydroxypropylcellulose) (HPC)
[8] = dose: 200.0 mg/kg/injection, schedule: Q04DX002 (ip), vehicle: Klucel (hydroxypropylcellulose) (HPC)
[9] = dose: 400.0 mg/kg/injection, schedule: Q04DX002 (ip), vehicle: Klucel (hydroxypropylcellulose) (HPC)
[10] = dose: 75.0 mg/kg/injection, schedule: Q04DX003 (ip), vehicle: Klucel (hydroxypropylcellulose) (HPC)
[11] = dose: 150.0 mg/kg/injection, schedule: Q04DX003 (ip), vehicle: Klucel (hydroxypropylcellulose) (HPC)
[12] = dose: 100.0 mg/kg/injection, schedule: Q01DX001 (ip), vehicle: carboxymethylcellulose (CMC)
[13] = dose: 200.0 mg/kg/injection, schedule: Q01DX001 (ip), vehicle: carboxymethylcellulose (CMC)
[14] = dose: 400.0 mg/kg/injection, schedule: Q01DX001 (ip), vehicle: carboxymethylcellulose (CMC)
[15] = dose: 100.0 mg/kg/injection, schedule: Q04DX003 (ip), vehicle: saline
[16] = dose: 200.0 mg/kg/injection, schedule: Q04DX003 (ip), vehicle: saline
[17] = dose: 400.0 mg/kg/injection, schedule: Q04DX003 (ip), vehicle: saline
[18] = dose: 100.0 mg/kg/injection, schedule: Q04DX003 (ip), vehicle: Klucel (hydroxypropylcellulose) (HPC)
[19] = dose: 200.0 mg/kg/injection, schedule: Q04DX003 (ip), vehicle: Klucel (hydroxypropylcellulose) (HPC)
[20] = dose: 400.0 mg/kg/injection, schedule: Q04DX003 (ip), vehicle: Klucel (hydroxypropylcellulose) (HPC)
[21] = dose: 400.0 mg/kg/injection, schedule: Q01DX009 (ip), vehicle: Klucel (hydroxypropylcellulose) (HPC)
[22] = dose: 100.0 mg/kg/injection, schedule: Q01DX001 (ip), vehicle: Klucel (hydroxypropylcellulose) (HPC)
[23] = dose: 400.0 mg/kg/injection, schedule: Q01DX001 (ip), vehicle: Klucel (hydroxypropylcellulose) (HPC)

Measured: T/C

Cc1cc2c(-c3ccccc3)nc3ccccc3n2c1Cl
inactive: [1] 92 % of control | [2] 95 % of control | [3] 103 % of control

COc1ccc(OC)c2c(C)cc(Cl)nc12
inactive: [4] 104 % of control | [5] 98 % of control | [6] 110 % of control

CCOC(=O)C1CCC/C1=N\N=C(N)N (centres undefined) (tested in a mixture with another compound)
inactive: dose: 15.0 mg/kg/injection, schedule: Q01DX Z (ip), vehicle: methylcellulose (MC) 95 % of control | dose: 30.0 mg/kg/injection, schedule: Q01DX Z (ip), vehicle: methylcellulose (MC) 102 % of control | dose: 60.0 mg/kg/injection, schedule: Q01DX Z (ip), vehicle: methylcellulose (MC) 104 % of control | dose: 60.0 mg/kg/injection, schedule: Q01DX Z (oral), vehicle: methylcellulose (MC) 86 % of control | dose: 120.0 mg/kg/injection, schedule: Q01DX Z (ip), vehicle: methylcellulose (MC) 97 % of control | dose: 120.0 mg/kg/injection, schedule: Q01DX Z (oral), vehicle: methylcellulose (MC) 94 % of control | dose: 240.0 mg/kg/injection, schedule: Q01DX Z (oral), vehicle: methylcellulose (MC) 92 % of control

CCCCCCCC(=O)Nc1cccc(C)c1C
inactive: dose: 100.0 mg/kg/injection, schedule: Q04DX003 (ip), vehicle: saline with Tween-80 101 % of control | dose: 200.0 mg/kg/injection, schedule: Q04DX003 (ip), vehicle: saline with Tween-80 87 % of control | dose: 400.0 mg/kg/injection, schedule: Q04DX003 (ip), vehicle: saline with Tween-80 101 % of control

CCCCCCCCCCCCCCCC(=O)OC(C)CCC1CCCO1 (centres undefined)
inactive: [4] 90 % of control | [5] 95 % of control | [6] 90 % of control

CCOC(=O)CNC(=O)C(OC(C)=O)C(OC(C)=O)C(=O)O (centres undefined)
inactive: dose: 100.0 mg/kg/injection, schedule: Q04DX003 (ip), vehicle: water 97 % of control | dose: 200.0 mg/kg/injection, schedule: Q04DX003 (ip), vehicle: water 92 % of control | dose: 400.0 mg/kg/injection, schedule: Q04DX003 (ip), vehicle: water 92 % of control

Nc1ccc(CC(=O)O)c(N)c1
inactive: [7] 87 % of control | [8] 97 % of control | [9] 97 % of control

CN1CCc2[nH]c3ccccc3c2C1
inactive: [10] 93 % of control | [11] 93 % of control

O=C(NO)C(=O)NCc1ccccc1
inactive: [12] 90 % of control | [13] 96 % of control | [14] 96 % of control

CC(=O)ON(C(C)=O)c1ccc(S(=O)(=O)c2ccc(N(OC(C)=O)C(C)=O)cc2)cc1
inactive: [15] 97 % of control | [16] 103 % of control | [17] 103 % of control

COc1ccc(OC(=O)Nc2ccc(SC)cc2)cc1
inactive: dose: 100.0 mg/kg/injection, schedule: Q01DX009 (ip), vehicle: saline with Tween-80 104 % of control | [18] 96 % of control | dose: 200.0 mg/kg/injection, schedule: Q01DX009 (ip), vehicle: saline with Tween-80 90 % of control | [19] 96 % of control | dose: 400.0 mg/kg/injection, schedule: Q01DX009 (ip), vehicle: saline with Tween-80 98 % of control | [20] 102 % of control

NC(=O)c1ccccc1C(N)=O
inactive: [2] 97 % of control | [18] 100 % of control | [3] 98 % of control | [19] 102 % of control | [21] 93 % of control | [20] 100 % of control

COc1c(Br)cc(C(=O)C(C)C)c(O)c1C
inactive: [10] 95 % of control | [11] 103 % of control | dose: 300.0 mg/kg/injection, schedule: Q04DX003 (ip), vehicle: Klucel (hydroxypropylcellulose) (HPC) 95 % of control

O=C(O)C1(C(=O)O)CC23CCC2(C1)CC(C(=O)O)(C(=O)O)C3 (centres undefined)
inactive: [15] 95 % of control | [16] 97 % of control | [17] 103 % of control

Oc1cc(O)c(O)cc1O
inactive: dose: 6.25 mg/kg/injection, schedule: Q01DX009 (ip), vehicle: saline 102 % of control | dose: 6.25 mg/kg/injection, schedule: Q04DX003 (ip), vehicle: saline with Tween-80 93 % of control | dose: 12.5 mg/kg/injection, schedule: Q01DX009 (ip), vehicle: saline 102 % of control | dose: 12.5 mg/kg/injection, schedule: Q04DX003 (ip), vehicle: saline with Tween-80 97 % of control | dose: 25.0 mg/kg/injection, schedule: Q01DX009 (ip), vehicle: saline 110 % of control | dose: 25.0 mg/kg/injection, schedule: Q04DX003 (ip), vehicle: saline with Tween-80 98 % of control

O=C(O)CCCC[Se][Se]CCCCC(=O)O
inactive: dose: 25.0 mg/kg/injection, schedule: Q01DX001 (ip), vehicle: Klucel (hydroxypropylcellulose) (HPC) 102 % of control | dose: 50.0 mg/kg/injection, schedule: Q01DX001 (ip), vehicle: Klucel (hydroxypropylcellulose) (HPC) 96 % of control | [22] 99 % of control

N#Cc1c(N)ncc2c1CCCC2
inactive: [1] 102 % of control | [2] 98 % of control | [3] 105 % of control

CC(C)([NH-])CO.CC(C)([NH-])CO.[Cl][Cd][Cl]
inactive: dose: 3.13 mg/kg/injection, schedule: Q01DX009 (ip), vehicle: saline sonified 98 % of control | dose: 5.0 mg/kg/injection, schedule: Q01DX009 (ip), vehicle: saline 96 % of control | dose: 6.25 mg/kg/injection, schedule: Q01DX009 (ip), vehicle: saline sonified 96 % of control | dose: 6.25 mg/kg/injection, schedule: Q04DX003 (ip), vehicle: saline sonified 95 % of control | dose: 10.0 mg/kg/injection, schedule: Q01DX009 (ip), vehicle: saline 100 % of control | dose: 10.0 mg/kg/injection, schedule: Q04DX003 (ip), vehicle: alcohol 93 % of control | dose: 12.5 mg/kg/injection, schedule: Q01DX009 (ip), vehicle: saline sonified 98 % of control | dose: 12.5 mg/kg/injection, schedule: Q04DX003 (ip), vehicle: saline sonified 92 % of control | dose: 20.0 mg/kg/injection, schedule: Q04DX003 (ip), vehicle: alcohol 89 % of control

O=C(O)c1c[nH]c2c(ccc3ccccc32)c1=O
inactive: [7] 103 % of control | [8] 122 % of control | [9] 92 % of control

CSc1cc2c(cc1N)Cc1cc(F)ccc1-2
inactive: [12] 98 % of control | [13] 98 % of control | [14] 95 % of control

Cn1c(N)c(N=Cc2ccncc2)c(=O)n(C)c1=O
inactive: dose: 50.0 mg/kg/injection, schedule: Q01DX001 (ip), vehicle: other 103 % of control | dose: 100.0 mg/kg/injection, schedule: Q01DX001 (ip), vehicle: other 92 % of control | dose: 200.0 mg/kg/injection, schedule: Q01DX001 (ip), vehicle: other 94 % of control | dose: 400.0 mg/kg/injection, schedule: Q01DX001 (ip), vehicle: other 97 % of control

CCCCC(CC)COC(=O)/C=C/C(=O)OCC(CC)CCCC (centres undefined)
inactive: [2] 96 % of control | [18] 101 % of control | [3] 107 % of control | [19] 95 % of control | [21] 107 % of control | [20] 93 % of control

Cc1ccc(S(=O)(=O)NC(Cc2ccccc2)C(=O)Nc2cccnc2)cc1 (centres undefined)
inactive: [22] 91 % of control | dose: 200.0 mg/kg/injection, schedule: Q01DX001 (ip), vehicle: Klucel (hydroxypropylcellulose) (HPC) 100 % of control | [23] 88 % of control

O=[N+]([O-])c1ccc(/C=C\c2ccccc2)cc1
inactive: [2] 95 % of control | [18] 98 % of control | [3] 97 % of control | [19] 98 % of control | [21] 96 % of control | [20] 96 % of control

Nc1c(Cl)cc2c(c1Br)C(=O)c1ccccc1C2=O
inactive: [22] 117 % of control | [23] 90 % of control
